Laboratory results: USRE47739E1, “2-(pyridin-2-ylamino)-pyrido[2,3-D]pyrimidin-7-ones” (Warner-Lambert Company LLC, priority 2002, dated 2019)
Structures can show the parent of a compound that is named as a salt.

How the values were obtained:
Cdk4/Cyclin D = Cdk4/Cyclin D (Homo sapiens, UniProt P11802); test: Assay for Inhibition of Cdk4/Cyclin D; type: biochemical; conditions: 25 μM ATP, retinoblastoma protein substrate, 25° C., 15 minutes
Method: (§1) The assays were carried out as described below.
Assay for Inhibition of Cdk4/Cyclin D
The Cdk4 enzyme assay for IC50 determination and kinetic evaluation is performed as follows. 96-well filter plates (Millipore MADVN6550) are used. […] Buffer A containing excess EDTA was used to determine the level of background ^32P in the absence of enzyme activity. All components except the ATP are added to the wells, and the plate is placed on a plate mixer for 2 minutes. The reaction is started by adding [^32P]ATP, and the plate is incubated at 25° C. for 15 minutes. The reaction is terminated by addition of 0.1 mL 20% trichloroacetic acid (TCA). The plate is kept at 4° C. for at least 1 hour to allow the substrate to precipitate. The wells are then washed five times with 0.2 mL 10% TCA, and ^32P incorporation is determined with a beta plate counter (Wallac Inc., Gaithersburg, Md.).

Cdk2/Cyclin A = Cdk2/Cyclin A (Homo sapiens, UniProt P24941); test: Assay for Inhibition of Cdk2/Cyclin A; type: biochemical; conditions: 12 mM ATP (so in the source), retinoblastoma protein substrate, 25° C., 15 minutes
Method: as §1
Assay for Inhibition of Cdk2/Cyclin A
Cdk2 enzyme assays for IC50 determinations and kinetic evaluation are performed as follows. 96-well filter plates (Millipore MADVN6550) are used. […] All components except the ATP are added to the wells, and the plate is placed on a plate mixer for 2 minutes. The reaction is initiated by addition of [^32P]ATP, and the plate is incubated at 25° C. for 15 minutes. The reaction is terminated by addition of 0.1 mL 20% TCA. The plate is kept at 4° C. for at least 1 hour to allow the substrate to precipitate. The wells are then washed five times with 0.2 mL 10% TCA, and ^32P incorporation is determined with a beta plate counter (Wallac Inc., Gaithersburg, Md.).

[1] = biological target: FGF receptor (FGFr) tyrosine kinase (Homo sapiens, UniProt P11362); test: Assay for Inhibition of FGFr; type: biochemical; conditions: 50 μM ATP, Poly (4:1) glutamate-tyrosine substrate, 25° C.
Method: as §1
Assay for Inhibition of FGFr
For FGF receptor (FGFr) tyrosine kinase assays 96-well plates (100 μL/incubation/well), and conditions are optimized to measure the incorporation of ^32P from [γ^32P]ATP into a glutamate-tyrosine co-polymer substrate. Briefly, to each well is added 82.5 μL incubation buffer B (25 mM Hepes (pH 7.0), 150 mM NaCl, 0.1% Triton X-100, 0.2 mM PMSF, 0.2 mM Na3VO4, 10 mM MnCl2) and 750 μg/mL Poly (4:1) glutamate-tyrosine followed by 2.5 μL of the test compound in buffer B and 5 μL of a 7.5 μg/μL FGFr solution to initiate the reaction. Following a 10-minute incubation at 25° C., […] [γ^32P]ATP (0.4 μCi plus 50 μM ATP) is added to each well, and samples are incubated for an additional 10 minutes at 25° C. The reaction is terminated by the addition of 100 μL 30% trichloroacetic acid (TCA) containing 20 mM sodium pyrophosphate and precipitation of material onto glass fiber mats (Wallac). […] Nonspecific activity is defined as radioactivity retained on the filters following incubation of samples with buffer alone (no enzyme). Specific enzymatic activity (enzyme plus buffer) is defined as total activity minus nonspecific activity.

Chain of FGF receptor (FGFr) tyrosine kinase (P11362 22-822): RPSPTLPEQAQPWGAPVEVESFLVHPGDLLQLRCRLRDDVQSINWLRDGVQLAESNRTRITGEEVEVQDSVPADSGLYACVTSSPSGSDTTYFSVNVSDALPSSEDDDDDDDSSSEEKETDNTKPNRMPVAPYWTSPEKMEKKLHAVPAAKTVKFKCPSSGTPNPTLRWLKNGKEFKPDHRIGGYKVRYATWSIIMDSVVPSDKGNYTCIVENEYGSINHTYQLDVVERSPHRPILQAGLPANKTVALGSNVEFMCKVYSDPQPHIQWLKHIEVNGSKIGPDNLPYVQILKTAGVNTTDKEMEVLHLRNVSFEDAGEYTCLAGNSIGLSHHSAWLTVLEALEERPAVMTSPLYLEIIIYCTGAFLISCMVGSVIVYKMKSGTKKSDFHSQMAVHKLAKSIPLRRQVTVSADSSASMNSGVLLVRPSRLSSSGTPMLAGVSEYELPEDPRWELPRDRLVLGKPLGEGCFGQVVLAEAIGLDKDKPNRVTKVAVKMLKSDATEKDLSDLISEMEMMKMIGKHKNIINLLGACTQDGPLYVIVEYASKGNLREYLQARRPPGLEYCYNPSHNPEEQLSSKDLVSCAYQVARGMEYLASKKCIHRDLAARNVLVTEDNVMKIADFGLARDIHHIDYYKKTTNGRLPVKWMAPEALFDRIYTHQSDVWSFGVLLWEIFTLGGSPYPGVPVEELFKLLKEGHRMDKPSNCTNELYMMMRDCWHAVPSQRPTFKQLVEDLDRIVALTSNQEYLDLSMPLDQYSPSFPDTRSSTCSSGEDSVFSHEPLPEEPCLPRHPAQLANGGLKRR
Chain of Cdk4/Cyclin D (P11802 whole entry, species assumed): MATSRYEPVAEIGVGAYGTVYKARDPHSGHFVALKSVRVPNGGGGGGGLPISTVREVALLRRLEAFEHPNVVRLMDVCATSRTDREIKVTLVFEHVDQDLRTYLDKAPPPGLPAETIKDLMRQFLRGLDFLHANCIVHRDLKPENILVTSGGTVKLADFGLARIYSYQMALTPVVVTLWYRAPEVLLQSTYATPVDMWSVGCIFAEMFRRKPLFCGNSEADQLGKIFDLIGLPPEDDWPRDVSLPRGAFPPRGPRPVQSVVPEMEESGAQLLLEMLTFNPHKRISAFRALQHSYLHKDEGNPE
Chain of Cdk4/Cyclin D (P24385 whole entry partner, species assumed): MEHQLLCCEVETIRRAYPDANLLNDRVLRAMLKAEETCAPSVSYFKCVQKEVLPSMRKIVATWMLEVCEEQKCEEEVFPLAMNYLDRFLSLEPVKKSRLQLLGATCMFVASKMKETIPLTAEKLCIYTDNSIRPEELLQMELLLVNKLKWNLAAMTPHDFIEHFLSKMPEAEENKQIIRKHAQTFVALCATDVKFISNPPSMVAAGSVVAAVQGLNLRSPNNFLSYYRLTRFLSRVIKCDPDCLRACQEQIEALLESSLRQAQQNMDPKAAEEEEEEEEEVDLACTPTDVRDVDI

| IC50 (Cdk4/Cyclin D) [µM] | IC50 (Cdk2/Cyclin A) [µM] | IC50 [1] [µM] | melting point | Molecule |
| --- | --- | --- | --- | --- |
| 0.135 | – | > 5 | 278 to 280 °C (dec.) | Cc1c(Br)c(=O)n(C2CCCC2)c2nc(Nc3ccc(N4CCN(C)CC4)cn3)ncc12 [Example 70, 6-Bromo-8-cyclopentyl-5-methyl-2-[5-(4-methyl-piperazin-1-yl)-pyridin-2-ylamino]-8H-pyrido[2,3-d]pyrimidin-7-one] |
| 0.763 | > 5 | – | – | Cc1c(Br)c(=O)n(C2CCCC2)c2nc(Nc3cccc(N)n3)ncc12 [Example 66, 2-(6-amino-pyridin-2-ylamino)-6-bromo-8-cyclopentyl-5-methyl-8H-pyrido[2,3-d]pyrimidin-7-one] |
| 0.018 | > 5 | > 5 | – | CCOCc1cc2cnc(Nc3ccc(N4CCOCC4)cn3)nc2n(C2CCCC2)c1=O [Example 125, 8-Cyclopentyl-6-ethoxymethyl-2-(5-morpholin-4-yl-pyridin-2-ylamino)-8H-pyrido[2,3-d]pyrimidin-7-one] |
| 0.545 | > 5 | – | – | CCOCc1cc2cnc(Nc3ccc(N4CCCCC4)cn3)nc2n(C2CCCC2)c1=O [Example 124, 8-Cyclopentyl-6-ethoxymethyl-2-(3,4,5,6-tetrahydro-2H-[1,3]bipyridinyl-6′-ylamino)-8H-pyrido[2,3-d]pyrimidin-7-one] |
| 0.021 | – | > 5 | – | CC(=O)c1c(C)c2cnc(Nc3ccc(N4CCNC(C)(C)C4)cn3)nc2n(C2CCCC2)c1=O [Example 90, 6-Acetyl-8-cyclopentyl-2-[5-(3,3-dimethyl-piperazin-1-yl)-pyridin-2-ylamino]-5-methyl-8H-pyrido[2,3-d]pyrimidin-7-one] |
| 1.95 | – | > 5 | – | Cc1c(Br)c(=O)n(C2CCCC2)c2nc(Nc3ccc(N4CCOCC4)cn3)ncc12 [Example 98, 6-Bromo-8-cyclopentyl-5-methyl-2-(5-morpholin-4-yl-pyridin-2-ylamino)-8H-pyrido[2,3-d]pyrimidin-7-one] |
| 0.074 | – | > 5 | – | Cc1c(Br)c(=O)n(C2CCCC2)c2nc(Nc3ccc(N4CCC(O)CC4)cn3)ncc12 [Example 75, 6-Bromo-8-cyclopentyl-2-(4-hydroxy-3,4,5,6-tetrahydro-2H-[1,3′]bipyridinyl-6′-ylamino)-5-methyl-8H-pyrido[2,3-d]pyrimidin-7-one] |
| 0.124 | – | > 5 | – | CCOCCc1cc2cnc(Nc3ccc(N4CCNCC4)cn3)nc2n(C2CCCC2)c1=O [Example 108, 8-Cyclopentyl-6-(2-ethoxy-ethyl)-2-(5-piperazin-1-yl-pyridin-2-ylamino)-8H-pyrido[2,3-d]pyrimidin-7-one] |
| 0.03 | – | > 5 | – | CC(=O)c1c(C)c2cnc(Nc3ccc(N4CC(C)OC(C)C4)cn3)nc2n(C2CCCC2)c1=O (stereo not drawn) [Example 130, 6-Acetyl-8-cyclopentyl-2-[5-(2,6-dimethyl-morpholin-4-yl)-pyridin-2-ylamino]-5-methyl-8H-pyrido[2,3-d]pyrimidin-7-one] |
| 0.44 | – | > 5 | – | CC(=O)c1c(C)c2cnc(Nc3ccccn3)nc2n(C2CCCC2)c1=O [Example 82, 6-Acetyl-8-cyclopentyl-5-methyl-2-(pyridin-2-ylamino)-8H-pyrido[2,3-d]pyrimindin-7-one] |
| 0.018 | – | > 5 | – | CCOCc1cc2cnc(Nc3ccc(N4CCNCC4)cn3)nc2n(C2CCCC2)c1=O [Example 116, 8-Cyclopentyl-6-ethoxymethyl-2-(5-piperazin-1-yl-pyridin-2-ylamino)-8H-pyrido[2,3-d]pyrimidin-7-one] |

Second part, the molecule before the results:

| Molecule | IC50 (Cdk4/Cyclin D) [µM] | IC50 (Cdk2/Cyclin A) [µM] | IC50 [1] [µM] | melting point |
| --- | --- | --- | --- | --- |
| O=c1ccc2cnc(Nc3ccc(N4CCNCC4)cn3)nc2n1C1CCCCC1 [Example 61, 8-cyclohexyl-2-(5-piperazin-1-yl-pyridin-2-ylamino)-8H-pyrido[2,3-d]pyrimidin-7-one] | 0.013 | 0.835 | 1.38 | – |
| CCc1cc2cnc(Nc3ccc(N4CCC(O)CC4)cn3)nc2n(C2CCCC2)c1=O [Example 51, 8-Cyclopentyl-6-ethyl-2-(4-hydroxy-3,4,5,6-tetrahydro-2H-[1,3′]bipyridinyl-6′-ylamino)-8H-pyrido [2,3-d]pyrimidin-7-one] | 0.135 | > 5 | – | – |
| O=c1ccc2cnc(Nc3ccccn3)nc2n1C1CCCC1 [Example 1, 8-Cyclopentyl-2-(pyridin-2-ylamino)-8H-pyrido[2,3-d]pyrimidin-7-one] | 0.145 | 5.01 | > 5 | – |
| O=c1ccc2cnc(Nc3ccccc3)nc2n1C1CCCC1 [1′, reference compound] | – | 0.021 | – | – |
| 8-Cyclopentyl-6-methoxymethyl-2-(5-piperazin-1-yl-pyridin-2-ylamino)-8H-pyrido[2,3-d]pyrimidin-7-one [Example 120] | 0.013 | 3.8 | 2.47 | – |
| O=c1ccc2cnc(Nc3ccc(N4CCNCC4)cn3)nc2n1C1CC1 (as salt: hydrochloride) [Example 64, 8-cyclopropyl-2-(5-piperazin-1-yl-pyridin-2-ylamino)-8H-pyrido[2,3-d]pyrimidin-7-one] | – | – | – | > 300 °C |
| CC(=O)c1cc2cnc(Nc3ccc(N4CCNCC4)cn3)nc2n(C2CCCC2)c1=O (as salt: hydrochloride) [Example 33, 6-Acetyl-8-cyclopentyl-2-(5-piperazin-1-yl-pyridin-2-ylamino)-8H-pyrido[2.3-d]pyrimidin-7-one hydrochloride] | – | – | – | > 300 °C |
| O=c1c(Br)cc2cnc(Nc3ccc(N4CCNCC4)cn3)nc2n1C1CCCC1 [Example 3, 6-Bromo-8-cyclopentyl-2-(5-piperazin-1-yl-pyridin-2-ylamino)-8H-pyrido [2,3-d]pyrimidin-7-one hydrochloride] | 0.016 | 6.05 | 1.03 | – |
| Cc1cc2cnc(Nc3ccc(N4CCNCC4)cn3)nc2n(C2CCCC2)c1=O [Example 20, 8-Cyclopentyl-6-methyl-2-(5-piperazin-1-yl-pyridin-2-ylamino)-8H-pyrido[2,3-d]pyrimidin-7-one hydrochloride] | 0.027 | 4.05 | 1.6 | – |
| COCCN(CCOC)c1ccc(Nc2ncc3c(C)c(Br)c(=O)n(C4CCCC4)c3n2)nc1 [Example 54, 2-{5-[Bis-(2-methoxy-ethyl)-amino]-pyridin-2-ylamino}-6-bromo-8-cyclopentyl-5-methyl-8H-pyrido[2,3-d]pyrimidin-7-one] | 1.1 | – | > 5 | 94 to 95 °C |
| Nc1cc2cnc(Nc3ccc(N4CCNCC4)cn3)nc2n(C2CCCC2)c1=O [Example 11, 6-Amino-8-cyclopentyl-2-(5-piperazin-1-yl-pyridin-2-ylamino)-8H-pyrido[2,3-d]pyrimidin-7-one hydrochloride] | 0.012 | – | 2.12 | – |
| O=c1c(Cc2ccccc2)cc2cnc(Nc3ccc(N4CCNCC4)cn3)nc2n1C1CCCC1 [Example 24, 6-Benzyl-8-cyclopentyl-2-(5-piperazin-1-yl-pyridin-2-ylamino)-8H-pyrido[2,3-d]pyrimidin-7-one hydrochloride] | 0.005 | > 5 | > 5 | – |
| O=c1ccc2cnc(Nc3ccc(N4CCNCC4)cn3)nc2n1C1CCCCC1 (as salt: hydrochloride) [Example 61, 8-cyclohexyl-2-(5-piperazin-1-yl-pyridin-2-ylamino)-8H-pyrido[2,3-d]pyrimidin-7-one] | – | – | – | 228 to 230 °C |
| O=c1ccc2cnc(Nc3ccc(N4CCNCC4)cn3)nc2n1C1CCCC1 (as salt: hydrochloride) [Example 59, 8-cyclopentyl-2-(5-piperazin-1-yl-pyridin-2-ylamino)-8H-pyrido[2,3-d]pyrimidin-7-one] | – | – | – | 213 to 215 °C |
| O=c1ccc2cnc(Nc3ccc(N4CCNCC4)cn3)nc2n1C1CCCC1 [Example 59, 8-cyclopentyl-2-(5-piperazin-1-yl-pyridin-2-ylamino)-8H-pyrido[2,3-d]pyrimidin-7-one] | 0.015 | 2.5 | 1.52 | – |
